Assays:
human T cells = experiment: Treatment of human T cells with K884: central memory differentiation and cytokine production; type: cell-based
Method: (§1) Calculate the specific cell lysis as follows: Specific cell lysis=((Sample−BF)/(AF−BF))×100 10) Flow Cytometry 1. Cell Activation • a. Wash cells with 1 ml of culture medium; • b. Centrifuge cells for 5 min at 300 g; • c. Resuspend cells in culture medium; • d. Prepare 2× solutions (negative control with only culture medium, Positive condition with 50 ng/mL of PMA and 500 ng/mL of lonomycin); • e. Plate 100 μL of cell suspension in 96 well plates (U-bottom); • f. Add 100 μL of 2× solutions in appropriate wells; • g. Incubate 4 hours at 37 C, 5% CO2. 2. Extracellular Staining • a. Record cell quantity transfers per tube; • b. Wash cells with 1 mL of PBS+2% FBS; • c. Centrifuge cells for 5 min at 300 g; • d. Empty tubes by inversion; • e. Add the antibodies for extracellular staining; • f. Incubate 20 min at 4° C.; • g. Wash cells with 1 mL of PBS+2% FBS; • h. Centrifuge cells for 5 min at 300 g; • i. Empty tubes by inversion; • j. Ressuspend cells in 100 μL fixation/permeabilisation buffer (eBioscience, #00-5223-56, 1 volume of concentrate buffer+3 volumes of diluent buffer) • k. Incubate 30 min at room temperature or overnight at 4° C. 3. Intracellular Staining • a. Wash cells with 1 mL of permeabilization buffer (eBioscience, #00-8333-56, dilution 1/10 in ddH2O); • b. Centrifuge cells for 5 min at 300 g; • c. Empty tubes by inversion; • d. Add the intracellular antibodies; • e. Incubate 1 hour at 4° C.; • f. Wash cells with 1 mL of permeabilization buffer; • g. Centrifuge cells for 5 min at 300 g; • h. Empty tubes by inversion; • i. Keep tubes at 4° C. shelter from light 4. Human PBMC Isolation by Ficoll • a. Prepare 50 ml tubes; • b. Transfer blood into 50 ml tubes, with maximum of 17.5 ml per tube; • c. Add sterile PBS to dilute blood to reach 35 ml; • d. Use a dropped-in Pasteur pipet used as a tunnel; add 15 ml of Ficoll; • e. Gently install the tubes and centrifuge at 1000 g for 20 min, RT without brakes; • f. Using a 25 ml pipet, harvest the interface ring of PBMC without too much Ficoll and transfer into a 50 ml tube (maximum 15 ml per tube); • g. […]

[1] = tested on: mouse activated CD8 T cells; experiment: Tcm differentiation and activation markers of stimulated mouse CD8 T cells (flow cytometry); type: cell-based
Method: 8) Stimulation of Mouse CD8 T Cells
2 μg/ml of 145-2C11 Hamster anti-Mouse CD3e in 300 μl of PBS are plated in 24 flat bottom well non-TC treated plates. Incubate O/N at 4° C. CD8 T cells from spleens of 8-12 weeks old OT-1 transgenic mice are isolated. 4×10^5 cells/ml are counted and resuspended in complete RPMI (RPMI+10% FBS heat inactivated at 55° C. for 45 min+Pen/Strep+55 μM β-Mercaptoethanol). The following 2× solutions are prepared:
a. Anti-Mouse CD28 10 μg/ml 40 U/ml rmIL-2. (40 ml)
0.5 ml of 2× solution is added to the corresponding wells. Incubate for 4-8 days. Every 2 days add inhibitor to the corresponding concentration. When the cells are confluent, expand to 6 cm tissue culture plates adding 4 ml of complete RPMI+20 U/ml of IL-2 and in b add 10 μM K884.
as §1, with “c.” for “c. Empty tubes by inversion; • d. Add the intracellular antibodies; • e. Incubate 1 hour at 4° C.; • f. Wash cells with 1 mL of permeabilization buffer; • g. Centrifuge cells for 5 min at 300 g; • h. Empty tubes by inversion; • i. Keep tubes at 4° C. shelter from light 4. Human PBMC Isolation by Ficoll • a. Prepare 50 ml tubes; • b. Transfer blood into 50 ml tubes, with maximum of 17.5 ml per tube; • c. Add sterile PBS to dilute blood to reach 35 ml; • d. Use a dropped-in Pasteur pipet used as a tunnel; add 15 ml of Ficoll; • e. Gently install the tubes and centrifuge at 1000 g for 20 min, RT without brakes; • f. Using a 25 ml pipet, harvest the interface ring of PBMC without too much Ficoll and transfer into a 50 ml tube (maximum 15 ml per tube); • g.”

[2] = 14 days with IL-7 and IL-15, restimulated with PMA and Ionomycin 4 hours

CCOC(=O)c1cc2cc(C(F)(F)P(=O)(O)O)c(Br)cc2s1 [Ex. 1, ((6-BROMO-2-(ETHOXYCARBONYL)BENZO[B]THIOPHEN-5-YL)DIFLUOROMETHYL)PHOSPHONATE]
TNFα secretion (human T cells; [2]): enhancement of the proinflammatory cytokine TNFα secretion
production of IFNγ (human T cells; [2]): production of IFNγ is maintained
response of peripheral blood human CD8 T cells to treatment (human T cells; human CD8 T cells compared to mouse CD8 T cells): respond in equivalent manner to mouse CD8 T cells
expression of IL-2 receptor alpha (CD25), fluorescence ([1]; activated mouse CD8 cells, Tcm gate, compared to untreated): increase on fluorescence closer to one order of magnitude
percentage of Tcm population relative to cells with IL-15 alone ([1]; followed by 5 days incubation with recombinant murine IL-15): ~2 times
differentiation into Tcm cells (CD62Lhigh-CD27high) ([1]; mouse activated CD8 T cells, compared to untreated cells): increased differentiation into Tcm cells at higher rates than the observed in untreated cells

Reference: patent US11597739B2, “Enhancing CD8+ T cells for adoptive T cell therapy by inhibiting PTPN1 (PTP1B) and PTPN2 (TC-PTP)” (The Royal Institution for the Advancement of …, priority 2017, dated 2023)
